Reference: ChEMBL document CHEMBL5543164 (J Med Chem, 2024)
Blank lines part the entries; values can stand above or below the compound they belong to.

Experiments:
MCF7 [1] = assay: cells; conditions: Homo sapiens, MCF7, 24 h, read-out: Activity
in vivo [2] = conditions: BALB/c, mouse, iv, 5 mg/kg
MCF7 [3] = assay: Induction of apoptosis in human MCF7 cells assessed as early apoptotic cells at 2.5 uM incubated for 24 hrs Annexin FITC/PI staining based flow cytometry analysis (reference value: 0.87%); type: functional
in vivo [4] = conditions: BALB/c, mouse, iv
MCF7 [5] = assay: Induction of apoptosis in human MCF7 cells assessed as necrotic cells at 5 uM incubated for 24 hrs Annexin FITC/PI staining based flow cytometry analysis (reference value: 1.33%); type: functional
MCF7 [6] = assay: Induction of apoptosis in human MCF7 cells assessed as late apoptotic cells at 2.5 uM incubated for 24 hrs Annexin FITC/PI staining based flow cytometry analysis (reference value: 5.84%); type: functional
in vivo [7] = conditions: BALB/c, mouse, iv, 5 mg/kg; remark: listed apart in the source
in vivo [8] = conditions: BALB/c, mouse, iv, 5 mg/kg; remark: listed apart in the source
MCF7 [9] = assay: Induction of apoptosis in human MCF7 cells assessed as necrotic cells at 10 uM incubated for 24 hrs Annexin FITC/PI staining based flow cytometry analysis (reference value: 1.33%); type: functional
MCF7 [10] = conditions: dose 20 mg/kg; route iv; time 19 day
MCF7 [11] = assay: Induction of apoptosis in human MCF7 cells assessed as early apoptotic cells at 5 uM incubated for 24 hrs Annexin FITC/PI staining based flow cytometry analysis (reference value: 0.87%); type: functional
MCF7 [12] = assay: Induction of apoptosis in human MCF7 cells assessed as late apoptotic cells at 10 uM incubated for 24 hrs Annexin FITC/PI staining based flow cytometry analysis (reference value: 5.84%); type: functional
in vivo [13] = conditions: BALB/c, mouse, iv, 5 mg/kg; remark: listed apart in the source
MCF7 [14] = assay: Induction of apoptosis in human MCF7 cells assessed as late apoptotic cells at 5 uM incubated for 24 hrs Annexin FITC/PI staining based flow cytometry analysis (reference value: 5.84%); type: functional
MCF7 [15] = assay: Induction of apoptosis in human MCF7 cells assessed as necrotic cells at 2.5 uM incubated for 24 hrs Annexin FITC/PI staining based flow cytometry analysis (reference value: 1.33%); type: functional
MCF7 [16] = assay: Induction of apoptosis in human MCF7 cells assessed as early apoptotic cells at 10 uM incubated for 24 hrs Annexin FITC/PI staining based flow cytometry analysis (reference value: 0.87%); type: functional
MCF7 [17] = assay: Antitumor activity against human MCF7 cells xenografted in BALB/c mouse assessed as tumor size at 20 mg/kg, iv measured every 2 days for 19 days (reference value: 1178 +/- 246mm3); type: functional; conditions: time 19 day
MCF7 [18] = conditions: dose 20 mg/kg; route iv; time 19 day; remark: listed apart in the source
in vivo [19] = conditions: BALB/c, mouse, iv, 5 mg/kg; remark: listed apart in the source
MCF7 [20] = assay: cells; conditions: Homo sapiens, MCF7, 24 h, read-out: Activity; remark: listed apart in the source
MCF7 [21] = assay: cells; conditions: Homo sapiens, MCF7, 24 h, read-out: Activity; remark: listed apart in the source
in vivo [22] = conditions: BALB/c, mouse, iv, 5 mg/kg; remark: listed apart in the source
MCF7 [23] = assay: Antitumor activity against human MCF7 cells xenografted in BALB/c mouse assessed as tumor growth inhibition at 20 mg/kg, iv measured every 2 days for 19 days; type: functional; conditions: MCF7, 456 h, time 19 day, read-out: TGI
in vivo [24] = conditions: BALB/c, mouse, iv, 5 mg/kg; remark: listed apart in the source
MCF7 [25] = assay: Antitumor activity against human MCF7 cells xenografted in BALB/c mouse assessed as tumor growth inhibition at 20 mg/kg, iv administered as lipodisc encapsulated form measured every 2 days for 19 days; type: functional; conditions: MCF7, 456 h, time 19 day, read-out: TGI
in vivo [26] = conditions: BALB/c, mouse, iv, 5 mg/kg; remark: listed apart in the source
in vivo [27] = conditions: BALB/c, mouse, iv; remark: listed apart in the source
MCF7 [28] = assay: Antitumor activity against human MCF7 cells xenografted in BALB/c mouse assessed as tumor size at 20 mg/kg, iv administered as lipodisc encapsulated form measured every 2 days for 19 days (reference value: 1178 +/- 246mm3); type: functional; conditions: time 19 day
[29] = target: T1, Phosphatidylinositol 4,5-bisphosphate 3-kinase catalytic subunit delta isoform (Homo sapiens, UniProt O00329)
T1 sequence (O00329 whole entry): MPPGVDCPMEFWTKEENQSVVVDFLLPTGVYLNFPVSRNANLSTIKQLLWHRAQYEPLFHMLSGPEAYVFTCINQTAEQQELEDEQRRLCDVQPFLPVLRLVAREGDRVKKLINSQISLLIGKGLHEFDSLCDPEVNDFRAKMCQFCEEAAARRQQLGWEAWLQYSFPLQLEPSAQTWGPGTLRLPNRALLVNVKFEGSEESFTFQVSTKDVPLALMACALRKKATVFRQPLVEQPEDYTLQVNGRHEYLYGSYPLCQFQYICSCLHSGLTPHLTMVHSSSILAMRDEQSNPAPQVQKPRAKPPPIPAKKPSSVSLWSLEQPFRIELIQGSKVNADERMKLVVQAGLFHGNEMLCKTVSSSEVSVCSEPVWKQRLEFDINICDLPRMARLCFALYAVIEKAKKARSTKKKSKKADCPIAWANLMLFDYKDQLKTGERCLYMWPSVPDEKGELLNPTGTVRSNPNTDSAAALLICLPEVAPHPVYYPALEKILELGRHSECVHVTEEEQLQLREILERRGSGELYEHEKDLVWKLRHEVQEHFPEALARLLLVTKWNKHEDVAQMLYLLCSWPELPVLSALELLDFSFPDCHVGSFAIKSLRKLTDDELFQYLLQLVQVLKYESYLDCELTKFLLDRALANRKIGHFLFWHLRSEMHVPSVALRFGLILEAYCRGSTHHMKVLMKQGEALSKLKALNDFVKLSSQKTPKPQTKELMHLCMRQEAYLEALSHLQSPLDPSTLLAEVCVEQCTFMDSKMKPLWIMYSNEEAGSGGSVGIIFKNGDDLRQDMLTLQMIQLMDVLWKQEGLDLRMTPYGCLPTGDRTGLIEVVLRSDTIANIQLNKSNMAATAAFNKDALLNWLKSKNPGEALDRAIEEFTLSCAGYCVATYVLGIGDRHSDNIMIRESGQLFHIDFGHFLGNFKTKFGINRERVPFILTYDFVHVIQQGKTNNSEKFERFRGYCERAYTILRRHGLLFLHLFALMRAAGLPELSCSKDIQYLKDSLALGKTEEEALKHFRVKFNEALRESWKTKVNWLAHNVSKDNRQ

[30] = target: Phosphatidylinositol 4,5-bisphosphate 3-kinase catalytic subunit gamma isoform (Homo sapiens, UniProt P48736); assay: Inhibition of PI3Kgamma (unknown origin) by ADP-glo plus luminescence assay
Cytochrome P450 3A4 = Cytochrome P450 3A4 (Homo sapiens, UniProt P08684); assay: Inhibition of CYP3A4-M (unknown origin); type: ADME
Cytochrome P450 1A2 = target: T2, Cytochrome P450 1A2 (Homo sapiens, UniProt P05177); assay: Inhibition of CYP1A2 (unknown origin); type: ADME
T2 sequence (P05177 whole entry): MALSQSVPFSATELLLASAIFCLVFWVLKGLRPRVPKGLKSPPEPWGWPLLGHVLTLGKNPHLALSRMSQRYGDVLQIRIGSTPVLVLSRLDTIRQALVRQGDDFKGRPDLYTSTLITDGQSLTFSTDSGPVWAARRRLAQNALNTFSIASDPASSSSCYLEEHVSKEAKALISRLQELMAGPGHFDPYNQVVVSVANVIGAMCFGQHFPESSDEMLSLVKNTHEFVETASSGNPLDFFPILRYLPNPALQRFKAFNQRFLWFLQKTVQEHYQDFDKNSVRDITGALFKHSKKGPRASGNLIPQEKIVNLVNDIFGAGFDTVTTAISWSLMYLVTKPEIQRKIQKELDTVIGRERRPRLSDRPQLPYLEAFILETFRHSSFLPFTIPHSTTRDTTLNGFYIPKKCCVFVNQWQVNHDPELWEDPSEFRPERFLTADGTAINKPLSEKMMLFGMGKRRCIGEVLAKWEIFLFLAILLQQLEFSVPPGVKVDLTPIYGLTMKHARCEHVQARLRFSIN

Cytochrome P450 2C19 = Cytochrome P450 2C19 (Homo sapiens, UniProt P33261); assay: Inhibition of CYP2C19 (unknown origin); type: ADME
[31] = target: Serine/threonine-protein kinase mTOR (Homo sapiens, UniProt P42345)
[32] = target: Phosphatidylinositol 4,5-bisphosphate 3-kinase catalytic subunit beta isoform (Homo sapiens, UniProt P42338)
Cytochrome P450 2C9 = Cytochrome P450 2C9 (Homo sapiens, UniProt P11712); assay: Inhibition of CYP2C9 (unknown origin); type: ADME
Cytochrome P450 2D6 = Cytochrome P450 2D6 (Homo sapiens, UniProt P10635); assay: Inhibition of CYP2D6 (unknown origin); type: ADME
[33] = target: Voltage-gated inwardly rectifying potassium channel KCNH2 (Homo sapiens, UniProt Q12809); assay: Inhibition of hERG; type: toxicity
Voltage-gated inwardly rectifying potassium channel KCNH2, sequence (Q12809 whole entry): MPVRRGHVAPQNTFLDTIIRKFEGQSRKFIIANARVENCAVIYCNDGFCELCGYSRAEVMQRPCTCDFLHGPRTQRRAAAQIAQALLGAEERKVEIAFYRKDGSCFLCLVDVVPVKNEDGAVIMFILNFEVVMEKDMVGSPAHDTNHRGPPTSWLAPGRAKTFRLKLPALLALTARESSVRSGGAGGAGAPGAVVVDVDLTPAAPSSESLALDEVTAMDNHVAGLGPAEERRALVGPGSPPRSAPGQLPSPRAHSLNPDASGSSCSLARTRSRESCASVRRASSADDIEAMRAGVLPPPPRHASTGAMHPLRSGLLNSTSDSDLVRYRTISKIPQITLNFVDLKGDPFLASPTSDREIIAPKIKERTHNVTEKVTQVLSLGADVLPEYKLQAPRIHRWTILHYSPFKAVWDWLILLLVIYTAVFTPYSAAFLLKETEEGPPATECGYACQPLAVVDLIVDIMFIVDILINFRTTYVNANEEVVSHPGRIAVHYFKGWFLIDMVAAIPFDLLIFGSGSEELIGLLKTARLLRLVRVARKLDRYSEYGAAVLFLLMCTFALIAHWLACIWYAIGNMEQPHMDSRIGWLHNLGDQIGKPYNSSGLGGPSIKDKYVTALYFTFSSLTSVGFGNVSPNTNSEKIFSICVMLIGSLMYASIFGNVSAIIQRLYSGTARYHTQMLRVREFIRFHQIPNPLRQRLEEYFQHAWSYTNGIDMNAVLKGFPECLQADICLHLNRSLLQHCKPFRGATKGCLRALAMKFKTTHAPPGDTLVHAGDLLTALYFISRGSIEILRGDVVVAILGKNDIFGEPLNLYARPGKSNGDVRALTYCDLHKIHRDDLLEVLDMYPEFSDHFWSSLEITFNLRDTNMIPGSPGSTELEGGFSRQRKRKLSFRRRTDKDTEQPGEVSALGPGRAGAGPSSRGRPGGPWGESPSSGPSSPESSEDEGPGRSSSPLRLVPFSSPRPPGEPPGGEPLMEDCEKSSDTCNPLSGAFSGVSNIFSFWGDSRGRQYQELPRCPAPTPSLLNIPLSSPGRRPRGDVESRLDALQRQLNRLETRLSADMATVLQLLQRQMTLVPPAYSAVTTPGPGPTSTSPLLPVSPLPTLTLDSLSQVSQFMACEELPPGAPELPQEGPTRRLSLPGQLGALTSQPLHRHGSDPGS

Phosphatidylinositol 4,5-bisphosphate 3-kinase catalytic subunit beta isoform, sequence (P42338 whole entry, canonical isoform): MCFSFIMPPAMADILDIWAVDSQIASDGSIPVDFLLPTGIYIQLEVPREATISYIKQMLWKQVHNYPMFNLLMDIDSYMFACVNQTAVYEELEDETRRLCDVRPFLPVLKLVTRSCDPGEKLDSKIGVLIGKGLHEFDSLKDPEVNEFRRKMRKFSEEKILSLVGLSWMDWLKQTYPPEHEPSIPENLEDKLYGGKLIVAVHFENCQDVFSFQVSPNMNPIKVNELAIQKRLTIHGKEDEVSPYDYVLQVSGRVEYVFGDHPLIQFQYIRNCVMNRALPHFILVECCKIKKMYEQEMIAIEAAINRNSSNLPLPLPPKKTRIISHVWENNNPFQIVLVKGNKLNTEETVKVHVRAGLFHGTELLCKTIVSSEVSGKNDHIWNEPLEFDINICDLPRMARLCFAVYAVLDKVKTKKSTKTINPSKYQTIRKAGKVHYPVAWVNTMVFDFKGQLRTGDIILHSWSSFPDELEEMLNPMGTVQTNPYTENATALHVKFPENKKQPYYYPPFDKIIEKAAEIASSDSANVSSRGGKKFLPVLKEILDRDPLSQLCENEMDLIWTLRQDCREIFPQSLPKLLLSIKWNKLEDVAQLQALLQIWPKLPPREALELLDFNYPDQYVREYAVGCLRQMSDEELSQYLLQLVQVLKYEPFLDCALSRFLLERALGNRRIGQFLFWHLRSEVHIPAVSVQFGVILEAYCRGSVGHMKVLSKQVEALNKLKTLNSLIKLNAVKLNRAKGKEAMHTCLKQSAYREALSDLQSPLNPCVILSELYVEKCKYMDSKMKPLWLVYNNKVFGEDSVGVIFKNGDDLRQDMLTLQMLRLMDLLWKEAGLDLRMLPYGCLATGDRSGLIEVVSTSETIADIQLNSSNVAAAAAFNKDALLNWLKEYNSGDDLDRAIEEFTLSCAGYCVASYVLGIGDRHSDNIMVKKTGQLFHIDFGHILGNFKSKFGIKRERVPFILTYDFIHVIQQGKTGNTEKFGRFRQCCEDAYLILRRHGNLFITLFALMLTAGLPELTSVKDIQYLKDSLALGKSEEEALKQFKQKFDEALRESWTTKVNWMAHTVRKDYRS
Phosphatidylinositol 4,5-bisphosphate 3-kinase catalytic subunit gamma isoform, sequence (P48736 whole entry, canonical isoform): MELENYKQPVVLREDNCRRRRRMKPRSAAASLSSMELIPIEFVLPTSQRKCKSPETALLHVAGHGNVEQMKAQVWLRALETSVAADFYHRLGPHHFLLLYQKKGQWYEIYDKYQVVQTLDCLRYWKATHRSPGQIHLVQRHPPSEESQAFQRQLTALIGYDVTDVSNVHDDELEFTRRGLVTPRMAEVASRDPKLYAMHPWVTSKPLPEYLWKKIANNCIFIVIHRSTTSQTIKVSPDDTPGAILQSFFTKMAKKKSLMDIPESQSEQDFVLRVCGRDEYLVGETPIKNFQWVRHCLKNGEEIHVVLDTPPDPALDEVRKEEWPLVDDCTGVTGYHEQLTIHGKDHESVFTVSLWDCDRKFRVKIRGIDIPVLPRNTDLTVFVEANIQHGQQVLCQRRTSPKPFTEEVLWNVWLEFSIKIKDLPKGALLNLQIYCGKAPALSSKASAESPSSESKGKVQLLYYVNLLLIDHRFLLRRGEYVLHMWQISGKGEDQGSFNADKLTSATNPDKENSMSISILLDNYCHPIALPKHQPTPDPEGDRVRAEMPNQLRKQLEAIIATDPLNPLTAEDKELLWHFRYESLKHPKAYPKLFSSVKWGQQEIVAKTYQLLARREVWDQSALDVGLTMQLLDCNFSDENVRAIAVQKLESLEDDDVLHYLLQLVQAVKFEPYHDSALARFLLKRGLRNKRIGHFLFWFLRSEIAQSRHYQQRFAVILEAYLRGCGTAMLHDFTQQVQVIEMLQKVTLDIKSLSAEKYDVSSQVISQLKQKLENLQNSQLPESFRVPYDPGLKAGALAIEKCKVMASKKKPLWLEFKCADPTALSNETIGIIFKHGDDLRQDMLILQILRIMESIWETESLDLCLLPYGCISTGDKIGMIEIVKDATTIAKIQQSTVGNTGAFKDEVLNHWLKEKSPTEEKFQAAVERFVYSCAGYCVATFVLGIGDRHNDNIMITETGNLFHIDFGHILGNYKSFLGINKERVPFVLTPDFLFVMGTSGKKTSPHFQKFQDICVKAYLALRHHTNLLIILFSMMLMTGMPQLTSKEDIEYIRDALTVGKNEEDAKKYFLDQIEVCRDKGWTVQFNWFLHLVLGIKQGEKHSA
Cytochrome P450 2C19, sequence (P33261 whole entry): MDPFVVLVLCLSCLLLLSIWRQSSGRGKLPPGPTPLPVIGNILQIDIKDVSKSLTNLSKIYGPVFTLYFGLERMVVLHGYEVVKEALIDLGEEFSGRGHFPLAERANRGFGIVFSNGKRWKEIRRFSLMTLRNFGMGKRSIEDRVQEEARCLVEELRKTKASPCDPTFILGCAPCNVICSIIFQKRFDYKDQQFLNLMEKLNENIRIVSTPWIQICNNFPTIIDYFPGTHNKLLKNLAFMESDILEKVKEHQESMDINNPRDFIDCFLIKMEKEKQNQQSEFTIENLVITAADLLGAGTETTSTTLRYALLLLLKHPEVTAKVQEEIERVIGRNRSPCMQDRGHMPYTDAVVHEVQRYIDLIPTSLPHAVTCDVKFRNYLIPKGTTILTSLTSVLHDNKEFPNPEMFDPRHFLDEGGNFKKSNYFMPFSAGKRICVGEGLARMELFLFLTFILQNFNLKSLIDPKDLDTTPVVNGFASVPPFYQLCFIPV
Cytochrome P450 3A4, sequence (P08684 whole entry): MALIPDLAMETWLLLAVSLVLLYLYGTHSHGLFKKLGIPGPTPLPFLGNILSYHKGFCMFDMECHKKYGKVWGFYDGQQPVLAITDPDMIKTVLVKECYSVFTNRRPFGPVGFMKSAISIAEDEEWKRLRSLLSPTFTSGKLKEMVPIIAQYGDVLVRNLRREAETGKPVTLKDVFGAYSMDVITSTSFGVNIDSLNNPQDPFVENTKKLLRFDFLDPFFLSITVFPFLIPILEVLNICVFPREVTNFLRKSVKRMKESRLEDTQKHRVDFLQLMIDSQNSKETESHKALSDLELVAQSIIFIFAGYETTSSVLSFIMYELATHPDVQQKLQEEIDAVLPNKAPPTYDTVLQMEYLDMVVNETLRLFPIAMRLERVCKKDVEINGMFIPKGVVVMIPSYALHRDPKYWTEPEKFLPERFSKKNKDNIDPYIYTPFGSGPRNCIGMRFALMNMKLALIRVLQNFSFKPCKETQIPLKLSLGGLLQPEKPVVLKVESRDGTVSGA
Cytochrome P450 2C9, sequence (P11712 whole entry): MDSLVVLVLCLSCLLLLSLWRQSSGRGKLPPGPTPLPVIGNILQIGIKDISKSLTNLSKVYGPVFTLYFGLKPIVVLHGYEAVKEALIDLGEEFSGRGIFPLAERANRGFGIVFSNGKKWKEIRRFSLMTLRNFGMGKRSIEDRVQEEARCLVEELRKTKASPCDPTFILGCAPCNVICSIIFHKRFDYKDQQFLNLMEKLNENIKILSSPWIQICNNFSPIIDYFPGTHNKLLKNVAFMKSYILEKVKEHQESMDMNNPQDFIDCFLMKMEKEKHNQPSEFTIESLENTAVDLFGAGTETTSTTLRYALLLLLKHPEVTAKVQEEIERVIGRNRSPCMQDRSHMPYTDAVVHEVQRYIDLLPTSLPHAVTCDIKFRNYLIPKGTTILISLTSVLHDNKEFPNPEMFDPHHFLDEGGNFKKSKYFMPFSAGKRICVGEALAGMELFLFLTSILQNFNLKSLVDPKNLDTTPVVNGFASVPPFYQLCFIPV

Structure (SMILES): CN(C)C1CCN(C(=O)c2ccc(NC(=O)Nc3ccc(-c4nc(N5CCOCC5)nc(N5CCOCC5)n4)cc3)cc2)CC1 [GEDATOLISIB]
viability at 5 µM (MCF7 [1]): 89% | AUC(0-inf) at 12 h (in vivo [2]): 32100 ng·h/mL | Activity (MCF7 [3]): 0.68% | MTD at […] (in vivo [4]): 30 mg/kg | Activity (MCF7 [5]): 1.95% | Activity (MCF7 [6]): 7.35% | Cmax at 12 h (in vivo [7]): 44000 ng/mL | half-life at 12 h (in vivo [8]): 1.3 h | Activity (MCF7 [9]): 1.77% | T/C (MCF7 [10]): 44.1% | Activity (MCF7 [11]): 0.64% | Activity (MCF7 [12]): 11.9% | half-life at 12 h (in vivo [13]): 7.4 h | Activity (MCF7 [14]): 8.41% | Activity (MCF7 [15]): 1.59% | Activity (MCF7 [16]): 0.82% | Activity (MCF7 [17]): 591 mm3 | T/C (MCF7 [18]): 46.7% | AUC(0-t) at 12 h (in vivo [19]): 31500 ng·h/mL | viability at 2.5 µM (MCF7 [20]): 90.4% | viability at 10 µM (MCF7 [21]): 85.5% | Cmax at 12 h (in vivo [22]): 10700 ng/mL | inhibition in vivo at 20 mg/kg (MCF7 [23]): 53.3% | AUC(0-inf) at 12 h (in vivo [24]): 5640 ng·h/mL | inhibition in vivo at 20 mg/kg (MCF7 [25]): 55.9% | AUC(0-t) at 12 h (in vivo [26]): 5280 ng·h/mL | MTD at […] (in vivo [27]): 20 mg/kg | Activity (MCF7 [28]): 559 mm3

IC50 [29]: > 10 µM | IC50 [30]: > 10 µM | IC50 (Cytochrome P450 3A4): > 10 µM | IC50 (Cytochrome P450 1A2): > 10 µM | IC50 (Cytochrome P450 2C19): > 10 µM | IC50 [31]: 0.0012 µM | IC50 [32]: > 10 µM | IC50 (Cytochrome P450 2C9): > 10 µM | IC50 (Cytochrome P450 2D6): > 10 µM
Structure (SMILES): O=C(Nc1ccc(-c2nc(N3C4CCC3COC4)nc(N3C4CCC3COC4)n2)cc1)Nc1ccc2c(c1)COC2=O
IC50 [33]: > 30 µM

IC50 [29]: 0.0983 µM | IC50 [30]: 0.0255 µM | IC50 [32]: 0.162 µM
Structure (SMILES): O=C(Nc1ccc(-c2nc(N3CCOCC3)nc(N3CCOCC3)n2)cc1)Nc1ccc2c(c1)CNC2=O
